Measured values reported in patent publication US10919889B2, “Chiral heterocyclic compound with hedgehog pathway antagonist activity, method and use thereof” (SUZHOU KINTOR PHARMACEUTICALS, INC., priority 2016, dated 2021).
Like-named read-outs stand apart in the source and are kept apart here.

Test: Rat pharmacokinetics experiments
Assay type: in vivo, Sprague-Dawley rats
Conditions: for Vd: read-out: Apparent volume of distribution Vd, ss; for AUC(0-t): read-out: Area under the curve AUC0-24 h; for clearance: read-out: Clearance CL; for bioavailability / concentration at 8 h: po; for concentration at 8 h: oral dose 10 mg/kg
Experimental: Male Spraguee-Dawley rats (body weight: 220 g˜250 g) were purchased from Slac Laboratory Animals (Shanghai). […] Blood samples were taken through the posterior orbital vein and the blood samples were placed in a tube containing EDTA (as an anticoagulant) and stored in a −80° C. environment after centrifugation with a refrigerated centrifuge. Blood sample (at an amount of folds of 25 μL) was taken and cold acetonitrile containing the internal standard (100 μL) was added. Sample was centrifuged for 10 minutes to precipitate the plasma protein. Finally, supernatant (10 μL) was injected into the LC-MS/MS system for analysis.
LC-MS/MS analysis method: All samples were analyzed by LC-MS/MS system of API4000 QTRAP mass spectrometer equipped with LC-20AD and CBM-20A controllers, DGU-20A solvent degasser and SIL-20A autosampler (Japan Shimadzu, Colombia, Md., USA). A Bona Aeger Venusil XBP C18 column (50×2.1 mm; filler 5 micron particle size) was used for HPLC separation. The column temperature was maintained at 40° C. The flow rate was 0.3 mL/min and the total run time was 6 minutes.
For the quantification of MS/MS, the API4000 QTRAP mass spectrometer was operated in an ESI positive mode with multiple reaction monitoring (MRM). All compounds and internal standards were set to be monitored during a residence time of 100 milliseconds. The other MS/MS parameters were set as follows: atomization gas (GS1) at 30 psi, 551b turbine pressure, 4500V ion spray voltage, 500° C. ion source temperature. For the selected ion transitions, each analyte was tested at the optimal sensitivity of the cluster potential (DP) and the collision energy (CE). Finally, the data was collected and processed using AB SCIEX Analysist 1.5.2 data collection and integration software.
Test subjects, Sprague-Dawley rats (body weight from about 220 g to about 250 g), were purchased from Slac Laboratory Animals (Shanghai, China). All compounds tested at 1 mg/mL concentration, either intravenous injected at a tail vein at 1 mL/kg dosage for one group of test subjects or administered orally at a dose of 10 mL/kg in another group of test subjects. Then aliquots of blood samples were collected by retro-orbital venous plexus puncture at time intervals after the injection/administration. The blood samples were kept in tubes containing EDTA, centrifuged and stored at −80° C. before analysis. Blank plasma was collected by the same method before rats were treated with compounds. Plasma samples for analysis were obtained by removing about 25 μL from the saved blood sample; adding cold acetonitrile (about 100 μL) as internal standard; centrifuged for 10 minutes to precipitate plasma proteins; and collect about 10 μL of the upper clear solution for analysis done by an LC-MS/MS system.
All samples were analyzed by an API 4000 QTRAP® LC/MS/MS System equipped with Shimadzu LC-20AD pump, Shimadzu CBM-20A controller, SIL-20A autosampler and DGU-20A degasser (Shimadzu, Columbia, Md., USA). A Venusil XBP C18 HPLC Column (2.1×50 mm, 5 μm) (Bonna-Agela Technologies) was used for HPLC separation at isocratic temperature of 40° C. Flow rate was kept at 0.3 mL/min and the total run time was kept at 6 minutes.
Quantification by MS/MS is done using the above-described API 4000 QTRAP mass spectrometer equipped with multiple reaction monitoring (MRM) and positive electrospray ionization (ESI+) modes. All compounds and internal standard were detected at […] of about 100 milliseconds. Other parameters for MS/MS are shown below: Ion Source Gas 1 (GS1) at 30 psi, turbine pressure at 55 pounds, ion spray voltage at 4500 V, and ion source temperature at 500° C. MRM measurements of the analytes were performed using declustering potential (DP) and […] values optimized for each analyte. Finally, all of the operations, the acquisition and analysis of data were controlled by Analyst (version 1.5.2, AB Sciex, USA).

[1] = male, Sprague-Dawley, plasma, intravenous injection, 2 mg/kg
[2] = male, Sprague-Dawley, plasma, oral, 10 mg/kg
[3] = male, Sprague-Dawley, plasma, oral, 10 mg/kg, read-out: Maximum plasma concentration Cmax
[4] = male, Sprague-Dawley, plasma, oral, 10 mg/kg, read-out: Peak time Tmax
[5] = male, Sprague-Dawley, plasma, 10 mg/kg, P.O. 10 mg/kg vs I.V. 2 mg/kg, read-out: F %
[6] = male, Sprague-Dawley, plasma, 10 mg/kg, oral 10 mg/kg vs intravenous 2 mg/kg, read-out: Bioavailability F %
[7] = male, Sprague-Dawley, plasma, 10 mg/kg, read-out: plasma concentration after 8 hours
[8] = male, Sprague-Dawley, plasma, 10 mg/kg, read-out: plasma concentration after 8 hours in terms of molecular weight conversion
[9] = male, Sprague-Dawley, plasma, 10 mg/kg, oral, read-out: bioavailability

AUC0-24 h (I.V., 2 mg/kg) | CL (I.V., 2 mg/kg) | AUC0-24 h (P.O., 10 mg/kg) | Vd [1] | AUC(0-t) [1] | clearance [1] | AUC(0-t) [2] | Cmax [3] | Tmax [4] | bioavailability [5] | bioavailability [6] | concentration at 8 h [7] | concentration at 8 h [8] | bioavailability [9] | increase of drug exposure (AUC) over that of A-55 | t1/2 (I.V., 2 mg/kg) | Cmax (P.O., 10 mg/kg) | Tmax (P.O., 10 mg/kg) | half-life (male, Sprague-Dawley, plasma, intravenous injection, 2 mg/kg, read-out: Half-life t1/2 (converted)) | SMILES
2905 ng·h/mL | 11.4 mL/min/kg | 7685 ng·h/mL | 3.1 L/kg | 2900 ng·h/mL | 11.4 mL/min/kg | 7680 ng·h/mL | 1690 ng/mL | 0.5 h | 53% | 53% | 83 ng/mL | 178 nM | 53% |  |  |  |  |  | Cc1cnc(-c2cc(N3CCc4nc(N5CCC(O)CC5)ncc4C3C)ncc2Cl)c(C)c1 (racemic) [B]
2233 ng·h/mL | 14.4 mL/min/kg | 12324 ng·h/mL | 2.2 L/kg | 2230 ng·h/mL | 14.4 mL/min/kg | 12300 ng·h/mL | 1520 ng/mL | 1 h | 100% | 100% | 623 ng/mL | 1340 nM | ~100% | 122% | 1.7 h | 1520 ng/mL | 1 h | 1.7 h | Cc1cnc(-c2cc(N3CCc4nc(N5CCC(O)CC5)ncc4[C@H]3C)ncc2Cl)c(C)c1 [Compound B1, (R)-1-(6-(5′-chloro-3,5-dimethyl-[2,4′-bipyridin]-2′-yl)-5-methyl-5,6,7,8-tetrahydropyrido[4,3-d]pyrimidin-2-yl)piperidin-4-ol]
